From patent US9642897B2, “Treatment of bone diseases” (THE UNIVERSITY OF SYDNEY, priority 2011, dated 2017) come the findings set out here.

“Also recorded” adds a separate entry of the source.

The test system of series [1] is mesenchymal stem cells (MSC). The series can be described thus: Mineralization (alizarin red staining) of osteogenic differentiating MSC. In kind it is cell-based, human. The conditions noted are these: MSC in OIM, 2 weeks. The procedure:
Human mesenchymal stem cells (MSC) (BioWhittaker, Walkersville, Md., USA) were plated at a density of 5×10^5 cells per well in 150 cm^2 dishes containing MSC growth medium (GM) (BioWhittaker, Walkersville, Md., USA) with 10% fetal calf serum (FCS) and incubated at 37° C. After the cells reached 60% confluence, media was replaced with either GM or osteoblastogenesis induction media (OIM) (prepared with MSCGM, 10% FCS, […] dexamethasone, 10 mmol/L β glycerol phosphate and 50 μg/mL ascorbic acid) for 21 days. Media was changed every three days. Media obtained at the beginning of the 1st, 2nd and 3rd wk of differentiation as well as conditioned media were collected for measurement of IFNγ. Concentrations of IFNγ in the conditioned media were measured from both GM and OM treated cells using Human […] DuoSet ELISA Development Kit (R&D Systems, Minneapolis, Mich., USA). To compare between the osteogenic and the immune effect of IFNγ, Jurkat cells and human T lymphocytes were plated at a density of 5×10^5 cells per well in 150 cm^2 dishes containing RPMI media.
Subsequently, the effect of chemical inhibition/stimulation of the intermediate and end products of kynurenine activation on osteogenic differentiating MSC was then characterised.
These compounds were added to the MSC media on day one of differentiation. Cells were treated for […]. Media was changed every three days. After three weeks of treatment, osteoblastogenesis and changes in osteogenic genes were quantified as described above.

Series [2] can be described thus: Pharmacokinetics of oral PA: serum concentrations by GC-MS. It counts as in vivo, C57BL/6 mice. The source says:
Nine-month-old oophorectomised (OVX) and SHAM-operated C57BL/6 mice (n=24 per group) were obtained from the Animal Resources Centre (Perth, Wash.). After 2 weeks of acclimation, mice were divided into four groups (Table 2) and received treatment in their drinking water for a total of 6 weeks. Mice treated with plain water were used as controls. Mice were housed in cages in a limited access room.
For absorption analysis of minerals in the duodenum, tissue was dissected and left to dry up in room temperature. 100 mg of tissue were dissolved in nitric acid and concentrations of nine minerals was quantified in the tissue homogenates using an Agilent 5973 mass selective detector via an auto-sampler Agilent Technologies 7683, and controlled using Agilent ChemStation software (Agilent, Santa Clara, Calif., USA). For pharmacokinetic analysis of PA, serum of Pa- and vehicle-treated animals was obtained by centrifugation. 1 μl of serum was injected into an Agilent 6890 gas chromato-graph, interfaced to an Agilent 5973 mass selective detector via an auto-sampler Agilent Technologies 7683, and controlled using Agilent ChemStation software (Agilent, Santa Clara, Calif., USA).

The test system of series [3] is bone marrow stromal cells (BMSC). Kind of series: Ex vivo cultures of BMSC from PA-treated mice (alizarin red, ALP, CFU-OB). In kind it is in vivo, C57BL/6 mice. The protocol: To establish adherent bone marrow cultures, both tibiae from PA- and vehicle-treated animals (n=6 per group) were flushed using a 21-gauge needle attached to a 10 ml syringe filled with Dulbecco's modified Eagle's Medium (DMEM) (GIBCO BRL, Gaithersburg, Md., USA). Cells from both tibiae were filtered through a cell strainer with 70-micron nylon mesh (BD Bioscience, Bedford, Mass., USA) and then combined to produce a volume of 2 ml containing ˜10^7 cells/ml. Six-well plate cultures were then established in triplicate, with each well containing a 100-μl aliquot of cell suspension combined with 4 ml of fresh -MEM medium. […]
To induce differentiation, a total of 10^4 cells were diluted in osteogenic medium (prepared with DMEM, 10% FCS, […] dexamethasone, 10 mmol/L β glycerol phosphate and 50 μg/mL ascorbic acid) and plated in six well plates. […] For alkaline phosphatase quantification, the colonies with more than 10% of cells staining positive for ALP were considered as colony forming units-osteoblasts (CFU-OB). For alizarin red quantification, matrix mineralization was quantified by extracting the Alizarin red staining with 100 mM cetypyridinium chloride (Sigma, St. Louis, Mo., USA) at room temperature for 3 h. The absorbance of the extracted Alizarin red S staining was measured at 570 nm.

For series [4], the system named is Runx2 and OCN. The series can be described thus: RT-PCR of Runx2 and OCN in bone marrow cells of PA-treated mice. In kind it is in vivo, C57BL/6 mice. The note with it: all PA-treated groups vs vehicle. The procedure:
Bone marrow cells were flushed and isolated as previously described. Total RNA was extracted from marrow cells using a QIAGEN RNeasy Mini extraction kit following manufacturer's instructions (QIAGEN Pty, Doncaster, VIC, Australia; cat#74104). First strand complementary DNA (cDNA) synthesis was performed using 200 ng of total RNA, 50 ng random hexamers and 50 units reverse transcriptase at 42° C. for 1 hour, as described by manufacturer (Bioline Australia Pty, Alexandria, NSW, Australia; cat# BIO-65025). Real-time PCR for expressed genes as markers for osteogenesis was performed in duplicate in a total reaction volume of 25 μl, 10% of which was cDNA (or water for non-template control), 3 mM MgCl2 and 250 nM of each forward and reverse specific primer for target genes and normalizer. Primers for specific detection of mRNA expression included: […]
All PCRs were performed in a Corbett Rotor-Gene™ 3000 (QIAGEN Pty) using SYBR green with no-ROX reaction mix and a standard thermal profile as described by supplier (Bioline Australia Pty, Alexandria, NSW, Australia; cat# QT6750-02). Quantitative RT-PCR data was defined by threshold cycle (Ct) normalized for the housekeeping gene glyceraldehyde-3-phosphate dehydrogenase (GAPDH): […]

Take `O=C(O)c1ccccn1` [PA, pyridine-2-carboxylic acid]: the “osteoblastogenesis / mineralisation (alizarin red)” value in series [1] is recorded as “accelerated mineralisation; also recorded: stimulate osteoblastogenesis”. The “serum concentrations of PA at higher dose” value in series [2] (higher dose vs 0.5 gm/Kg/d) is on record as “not followed by higher serum concentrations”. For the same compound, the “serum concentrations of PA, OVX vs SHAM counterpart” value in series [2] (low dose of PA) was “lower serum concentrations”. Moreover, the “serum concentrations of PA” value in series [2] (oral PA in drinking water, 6 weeks, Sham and OVX mice) is given as “increased in the treated groups in a dose-dependent manner”. In addition, the “capacity to mineralise (alizarin red), ex vivo BMSC” value in series [3] (SHAM and OVX mice treated 6 weeks, 2 weeks culture in osteogenic media) is “significantly capacity to mineralise”. Besides, the “number of colony forming units-osteoblasts (CFU-OB)” value in series [3] (cultures from PA-treated vs vehicle treated mice) is listed as “significantly higher”. Further, the “mRNA levels of osteogenic genes Runx2 and OCN” value in series [4] is “higher levels”.
